Experimental data as given in US20250032525A1 (priority 2021, published 2025).
Where two headings read alike, the source gives them in different places.

What was measured:
OVCAR-8 [1] = conditions: OVCAR-8, NCI-60 database, sulforhodamine B; read-out: Cytotoxic IC50; cited from earlier work
HCC-2998 [2] = conditions: HCC-2998, NCI-60 database, sulforhodamine B; read-out: Cytotoxic IC50; cited from earlier work
HCT-15 = conditions: HCT-15, NCI-60 database, sulforhodamine B; read-out: Cytotoxic IC50; cited from earlier work
PANC-1 = conditions: PANC-1, from Varbanov et al. (2017), PrestoBlue; read-out: Cytotoxic IC50; cited from earlier work
NCI-60 cell lines = assay: NCI DTP NCI-60 cell line screen database (sulforhodamine B), panel; format: cell-based; conditions: Homo sapiens
[3] = In vivo toxicity (dose-finding) studies; parameters: species or system FVB mice; conditions: for Mortality (%) / Survival: single iv
Description: PyDau and LiPyDau dose-finding studies were done using 10 weeks old FVB mice, by single intravenous injections of different doses of the compounds (3 mouse/dose) via the tail vein. The status of the mice was monitored daily for signs of pain or discomfort. Mice were euthanized at 20% body weight loss or at a low score (1 or 2) on the Body Condition Scoring scale. Survival was followed for 30 days and the Maximum Tolerable Dose (MTD) was defined as the highest dose where 100% survival was observed.

HOP-62 = assay: In vitro cytotoxicity (PrestoBlue); format: cell-based; conditions: Homo sapiens, HOP-62, 72 h; read-out: Cytotoxic IC50
Description: (§1) Experiments were repeated at least 3 times.

CAKI-1 = assay: In vitro cytotoxicity (PrestoBlue); format: cell-based; conditions: Homo sapiens, CAKI-1, 72 h; read-out: Cytotoxic IC50
Description: as §1

OVCAR-8 [4] = assay: In vitro cytotoxicity (PrestoBlue); format: cell-based; conditions: Homo sapiens, OVCAR-8, 72 h; read-out: Cytotoxic IC50
Description: as §1

A498 = assay: In vitro cytotoxicity (PrestoBlue); format: cell-based; conditions: Homo sapiens, A498, 72 h; read-out: Cytotoxic IC50
Description: as §1

SW-620 = assay: In vitro cytotoxicity (PrestoBlue); format: cell-based; conditions: Homo sapiens, SW-620, 72 h; read-out: Cytotoxic IC50
Description: as §1

NCI-H226 = assay: In vitro cytotoxicity (PrestoBlue); format: cell-based; conditions: Homo sapiens, NCI-H226, 72 h; read-out: Cytotoxic IC50
Description: as §1

SK-MEL-2 = assay: In vitro cytotoxicity (PrestoBlue); format: cell-based; conditions: Homo sapiens, SK-MEL-2, 72 h; read-out: Cytotoxic IC50
Description: as §1

OVCAR-3 = assay: In vitro cytotoxicity (PrestoBlue); format: cell-based; conditions: Homo sapiens, OVCAR-3, 72 h; read-out: Cytotoxic IC50
Description: as §1

HL-60(TB) = assay: In vitro cytotoxicity (PrestoBlue); format: cell-based; conditions: Homo sapiens, 72 h, read-out: Cytotoxic IC50
Description: as §1

HCC-2998 [5] = assay: In vitro cytotoxicity (PrestoBlue); format: cell-based; conditions: Homo sapiens; HCC-2998, 72 h; read-out: Cytotoxic IC50
Description: as §1

KM12 = assay: In vitro cytotoxicity (PrestoBlue); format: cell-based; conditions: Homo sapiens, KM12, 72 h; read-out: Cytotoxic IC50
Description: as §1

NCI-H522 = assay: In vitro cytotoxicity (PrestoBlue); format: cell-based; conditions: Homo sapiens, NCI-H522, 72 h; read-out: Cytotoxic IC50
Description: as §1

NCI/ADR-RES = assay: In vitro cytotoxicity (PrestoBlue); format: cell-based; conditions: Homo sapiens, 72 h, read-out: Cytotoxic IC50
Description: as §1

EKVX = assay: In vitro cytotoxicity (PrestoBlue); format: cell-based; conditions: Homo sapiens, 72 h, read-out: Cytotoxic IC50
Description: as §1

OVCAR-5 = assay: In vitro cytotoxicity (PrestoBlue); format: cell-based; conditions: Homo sapiens, OVCAR-5, 72 h; read-out: Cytotoxic IC50
Description: as §1

RXF 393 = assay: In vitro cytotoxicity (PrestoBlue); format: cell-based; conditions: Homo sapiens, RXF 393, 72 h; read-out: Cytotoxic IC50
Description: as §1

PC-3 = assay: In vitro cytotoxicity (PrestoBlue); format: cell-based; conditions: Homo sapiens, PC-3, 72 h; read-out: Cytotoxic IC50
Description: as §1

Bx-PC-3 = assay: In vitro cytotoxicity (PrestoBlue); format: cell-based; conditions: Homo sapiens, BXPC-3; Bx-PC-3, 72 h; read-out: Cytotoxic IC50
Description: as §1

MALME-3M = assay: In vitro cytotoxicity (PrestoBlue); format: cell-based; conditions: Homo sapiens, 72 h, read-out: Cytotoxic IC50
Description: as §1

CCRF-CEM = assay: In vitro cytotoxicity (PrestoBlue); format: cell-based; conditions: Homo sapiens, 72 h, read-out: Cytotoxic IC50
Description: as §1

COLO 205 = assay: In vitro cytotoxicity (PrestoBlue); format: cell-based; conditions: Homo sapiens, COLO 205, 72 h; read-out: Cytotoxic IC50
Description: as §1

DU-145 = assay: In vitro cytotoxicity (PrestoBlue); format: cell-based; conditions: Homo sapiens, DU-145, 72 h; read-out: Cytotoxic IC50
Description: as §1

## COc1cccc2c1C(=O)c1c(O)c3c(c(O)c1C2=O)C[C@@](O)(C(=O)CO)C[C@@H]3O[C@H]1C[C@H](N)[C@H](O)[C@H](C)O1 [DOX, doxorubicin]
OVCAR-8 [1]
  IC50: 130 nM
HCC-2998 [2]
  IC50: 181 nM
HCT-15
  IC50: 1200 nM
PANC-1
  IC50: 460 nM
NCI-60 cell lines; read-out: Cytotoxic IC50, av. breast
  IC50: 190 nM
NCI-60 cell lines; read-out: Cytotoxic IC50, av. colorectal
  IC50: 296 nM
NCI-60 cell lines; read-out: Cytotoxic IC50, av. leukaemia
  IC50: 49.8 nM
NCI-60 cell lines; read-out: Cytotoxic IC50, av. lung
  IC50: 221 nM
NCI-60 cell lines; read-out: Cytotoxic IC50, av. melanoma
  IC50: 177 nM
NCI-60 cell lines; read-out: Cytotoxic IC50, av. ovarian
  IC50: 3650 nM
NCI-60 cell lines; read-out: Cytotoxic IC50, av. prostatic
  IC50: 173 nM
NCI-60 cell lines; read-out: Cytotoxic IC50, av. renal
  IC50: 247 nM

## COc1cccc2c1C(=O)c1c(O)c3c(c(O)c1C2=O)C[C@@](O)(C(C)=O)C[C@@H]3O[C@H]1C[C@H]2[C@H](OC3CCCN32)[C@H](C)O1 (some centres unmarked) [PyDau, 2-deamino-2-pyrrolino-daunorubicin]
[3]; 3, 2, 1 and 0.5 mg/kg
  Lethality: lethal
[3]; PyDau dose 0.05 mg/kg
  Mortality (%): 0%
  Survival: >30 days
[3]; PyDau dose 0.1 mg/kg
  Mortality (%): 0%
  Survival: >30 days
[3]; PyDau dose 0.17 mg/kg
  Mortality (%): 0%
  Survival: >30 days
[3]; PyDau dose 0.25 mg/kg
  Mortality (%): 0%
  Survival: >30 days
[3]; PyDau dose 0.5 mg/kg
  Mortality (%): 100%
  Survival: 11 days
[3]; PyDau dose 1 mg/kg
  Mortality (%): 100%
  Survival: 4 days
[3]; PyDau dose 2 mg/kg
  Mortality (%): 100%
  Survival: 2 days
[3]; PyDau dose 3 mg/kg
  Mortality (%): 100%
  Survival: 2 days
[3]; dose-finding studies in mice
  Safety window: too narrow
[3]; mouse, in vivo, single intravenous injection, FVB mice, highest dose with 100% survival over 30 days, read-out: Maximum Tolerable Dose (MTD)
  MTD at 30 days: 0.25 mg/kg
HOP-62
  IC50: 4.16 nM
CAKI-1
  IC50: 1.4 nM
OVCAR-8 [4]
  IC50: 1.19 nM
A498
  IC50: 13.3 nM
SW-620
  IC50: 2.78 nM
NCI-H226
  IC50: 4.44 nM
SK-MEL-2
  IC50: 3.55 nM
OVCAR-3
  IC50: 1.22 nM
HL-60(TB)
  IC50: 0.9 nM
HCC-2998 [5]
  IC50: 8.19 nM
KM12
  IC50: 1.42 nM
NCI-H522
  IC50: 0.94 nM
NCI/ADR-RES
  IC50: 1.38 nM
EKVX
  IC50: 3.67 nM
OVCAR-5
  IC50: 1.93 nM
RXF 393
  IC50: 4.66 nM
PC-3
  IC50: 2.54 nM
Bx-PC-3
  IC50: 4.68 nM
MALME-3M
  IC50: 1.84 nM
CCRF-CEM
  IC50: 0.23 nM
COLO 205
  IC50: 2.38 nM
DU-145
  IC50: 1.31 nM
